In this test the target is T1, Enoyl-acyl-carrier protein reductase (Plasmodium falciparum, UniProt Q965D5).
T1 sequence (Q965D5 whole entry): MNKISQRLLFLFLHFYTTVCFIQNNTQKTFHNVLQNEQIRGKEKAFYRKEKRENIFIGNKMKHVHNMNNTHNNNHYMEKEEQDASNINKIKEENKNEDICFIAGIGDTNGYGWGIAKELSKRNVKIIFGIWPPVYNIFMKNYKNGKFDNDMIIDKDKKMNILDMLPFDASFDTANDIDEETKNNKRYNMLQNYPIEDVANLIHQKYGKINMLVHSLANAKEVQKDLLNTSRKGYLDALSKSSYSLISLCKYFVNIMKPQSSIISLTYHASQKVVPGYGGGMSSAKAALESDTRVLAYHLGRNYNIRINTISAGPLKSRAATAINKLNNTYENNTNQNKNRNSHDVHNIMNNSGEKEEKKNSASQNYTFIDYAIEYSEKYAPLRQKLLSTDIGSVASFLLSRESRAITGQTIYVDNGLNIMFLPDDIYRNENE
The test is described as follows: Inhibition of Plasmodium falciparum enoyl-acyl carrier protein reductase expressed in Escherichia coli BL21(DE3) by spectrophotometry.

Molecules are shown by their SMILES.

`Oc1cc(Cl)ccc1Oc1ccc(Cl)cc1Cl` [TRICLOSAN] came in with a Ki of 50 nM.

The values are drawn from ChEMBL document CHEMBL1152896, “Design and in silico screening of combinatorial library of antimalarial analogs of triclosan inhibiting Plasmodium falciparum enoyl-acyl carrier protein reductase” (Eur J Med Chem, 2009).
